# Results as given in US6525001B1, “Substituted pyrimidine and pyridine herbicides” (Mid-American Commercialization Corporation, priority 1997, dated 2003).
# Experiments:
# Assay type in all cases: in vivo
# [1] = tested on: crabgrass (Digitaria sanguinalis); assay: Test B pre-/postemergence; set-up: key: 0 is no effect; 10 is complete control
# In short: (§1)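 Scored visually 0 (none) to 10 (complete control) against untreated plants after twelve to sixteen greenhouse days. Test chemicals, formulated in surfactant-containing non-phytotoxic solvent, applied to soil after planting and, separately, onto 1- to 4-leaf (2–18 cm) plants.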
# soybean (Glycine max) = assay: Test B pre-/postemergence; set-up: key: 0 is no effect; 10 is complete control
# In short: as §1
# [2] = tested on: purple nutsedge (Cyperus rotundus); assay: Test B pre-/postemergence; set-up: key: 0 is no effect; 10 is complete control
# In short: as §1
# [3] = tested on: sugar beet (Beta vulgaris); assay: Test B pre-/postemergence; set-up: key: 0 is no effect; 10 is complete control
# In short: as §1
# [4] = tested on: velvetleaf (Abutilon theophrasti); assay: Test B pre-/postemergence; set-up: key: 0 is no effect; 10 is complete control
# In short: as §1
# [5] = tested on: wheat (Triticum aestivum); assay: Test B pre-/postemergence; set-up: key: 0 is no effect; 10 is complete control
# In short: as §1
# rape (Brassica napus) = assay: Test B pre-/postemergence; set-up: key: 0 is no effect; 10 is complete control
# In short: as §1
# [6] = tested on: cocklebur (Xanthium strumarium); assay: Test B pre-/postemergence; set-up: key: 0 is no effect; 10 is complete control
# In short: as §1
# corn (Zea mays) = assay: Test B pre-/postemergence; set-up: key: 0 is no effect; 10 is complete control
# In short: as §1
# [7] = tested on: pigweed (Amaranthus retroflexus); assay: Test B pre-/postemergence; set-up: key: 0 is no effect; 10 is complete control
# In short: as §1
# [8] = tested on: blackgrass (Alopecurus myosuroides); assay: Test B pre-/postemergence; set-up: key: 0 is no effect; 10 is complete control
# In short: as §1
# rice (Oryza sativa) = assay: Test B flood test
# In short: (§2)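 Flood test on plants grown to the 2-leaf stage; treated plants kept in greenhouse twelve to sixteen days, then visually rated against controls on a 0 (no effect) to 10 (complete control) scale.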
# [9] = tested on: smallflower flatsedge (Cyperus difformis); assay: Test B flood test
# In short: as §2
# [10] = tested on: bamyardgrass (Echinochloa crus-galli); assay: Test B flood test
# In short: as §2
# [11] = tested on: duck salad (Heteranthera limosa); assay: Test B flood test
# In short: as §2
# [12] = Rate 62 g/ha, Postemergence (flood test)
# [13] = Rate 125 g/ha, Postemergence section (flood test species)
# [14] = Rate 250 g/ha, Postemergence (flood test species)
# [15] = Rate 500 g/ha, Postemergence (flood test species)
structure (smiles),measurement,setting,value
Cc1cnc(-n2ccc(C(F)(F)F)n2)nc1Cn1ccc(C(F)(F)F)n1 [Compound 52],"Plant response rating, Crabgrass","[1]; Rate 62 g/ha, Postemergence",6
same,Crabgrass plant response rating,"[1]; Rate 62 g/ha, Preemergence",9
same,Crabgrass plant response rating,"[1]; Rate 125 g/ha, Postemergence",8
same,"Plant response rating, Crabgrass","[1]; Rate 125 g/ha, Preemergence",10
same,"Plant response rating, Crabgrass","[1]; Rate 250 g/ha, Postemergence",9
same,"Plant response rating, Crabgrass","[1]; Rate 250 g/ha, Preemergence",10
same,"Plant response rating, Crabgrass","[1]; Rate 500 g/ha, Postemergence",9
same,"Plant response rating, Crabgrass","[1]; Rate 500 g/ha, Preemergence",10
same,"Plant response rating, Soybean","soybean (Glycine max); Rate 62 g/ha, Postemergence",9
same,Soybean plant response rating,"soybean (Glycine max); Rate 62 g/ha, Preemergence",4
same,Soybean plant response rating,"soybean (Glycine max); Rate 125 g/ha, Postemergence",9
same,"Plant response rating, Soybean","soybean (Glycine max); Rate 125 g/ha, Preemergence",7
same,"Plant response rating, Soybean","soybean (Glycine max); Rate 250 g/ha, Postemergence",9
same,"Plant response rating, Soybean","soybean (Glycine max); Rate 250 g/ha, Preemergence",8
same,"Plant response rating, Soybean","soybean (Glycine max); Rate 500 g/ha, Postemergence",9
same,"Plant response rating, Soybean","soybean (Glycine max); Rate 500 g/ha, Preemergence",9
same,"Plant response rating, Nutsedge","[2]; Rate 62 g/ha, Postemergence",1
same,Nutsedge plant response rating,"[2]; Rate 62 g/ha, Preemergence",0
same,Nutsedge plant response rating,"[2]; Rate 125 g/ha, Postemergence",3
same,"Plant response rating, Nutsedge","[2]; Rate 500 g/ha, Postemergence",7
same,"Plant response rating, Nutsedge","[2]; Rate 500 g/ha, Preemergence",1
same,"Plant response rating, Sugarbeets","[3]; Rate 62 g/ha, Postemergence",9
same,Sugarbeets plant response rating,"[3]; Rate 62 g/ha, Preemergence",10
same,Sugarbeets plant response rating,"[3]; Rate 125 g/ha, Postemergence",10
same,"Plant response rating, Sugarbeets","[3]; Rate 125 g/ha, Preemergence",10
same,"Plant response rating, Sugarbeets","[3]; Rate 250 g/ha, Postemergence",10
same,"Plant response rating, Sugarbeets","[3]; Rate 250 g/ha, Preemergence",10
same,"Plant response rating, Sugarbeets","[3]; Rate 500 g/ha, Postemergence",10
same,"Plant response rating, Sugarbeets","[3]; Rate 500 g/ha, Preemergence",10
same,"Plant response rating, Velvetleaf","[4]; Rate 62 g/ha, Postemergence",8
same,Velvetleaf plant response rating,"[4]; Rate 62 g/ha, Preemergence",10
same,Velvetleaf plant response rating,"[4]; Rate 125 g/ha, Postemergence",8
same,"Plant response rating, Velvetleaf","[4]; Rate 125 g/ha, Preemergence",10
same,"Plant response rating, Velvetleaf","[4]; Rate 250 g/ha, Postemergence",8
same,"Plant response rating, Velvetleaf","[4]; Rate 250 g/ha, Preemergence",10
same,"Plant response rating, Velvetleaf","[4]; Rate 500 g/ha, Postemergence",9
same,"Plant response rating, Velvetleaf","[4]; Rate 500 g/ha, Preemergence",10
same,Wheat plant response rating,"[5]; Rate 62 g/ha, Postemergence",4
same,Wheat plant response rating,"[5]; Rate 62 g/ha, Preemergence",2
same,Wheat plant response rating,"[5]; Rate 125 g/ha, Postemergence",7
same,"Plant response rating, Wheat","[5]; Rate 125 g/ha, Preemergence",2
same,"Plant response rating, Wheat","[5]; Rate 250 g/ha, Postemergence",7
same,"Plant response rating, Wheat","[5]; Rate 250 g/ha, Preemergence",3
same,"Plant response rating, Wheat","[5]; Rate 500 g/ha, Postemergence",8
same,"Plant response rating, Wheat","[5]; Rate 500 g/ha, Preemergence",6
same,"Plant response rating, Rape","rape (Brassica napus); Rate 62 g/ha, Postemergence",9
same,Rape plant response rating,"rape (Brassica napus); Rate 62 g/ha, Preemergence",9
same,Rape plant response rating,"rape (Brassica napus); Rate 125 g/ha, Postemergence",9
same,"Plant response rating, Rape","rape (Brassica napus); Rate 125 g/ha, Preemergence",10
same,"Plant response rating, Rape","rape (Brassica napus); Rate 250 g/ha, Postemergence",9
same,"Plant response rating, Rape","rape (Brassica napus); Rate 250 g/ha, Preemergence",10
same,"Plant response rating, Rape","rape (Brassica napus); Rate 500 g/ha, Postemergence",10
same,"Plant response rating, Rape","rape (Brassica napus); Rate 500 g/ha, Preemergence",10
same,"Plant response rating, Cocklebur","[6]; Rate 62 g/ha, Postemergence",8
same,Cocklebur plant response rating,"[6]; Rate 62 g/ha, Preemergence",1
same,Cocklebur plant response rating,"[6]; Rate 125 g/ha, Postemergence",8
same,"Plant response rating, Cocklebur","[6]; Rate 250 g/ha, Postemergence",9
same,"Plant response rating, Cocklebur","[6]; Rate 250 g/ha, Preemergence",7
same,"Plant response rating, Cocklebur","[6]; Rate 500 g/ha, Postemergence",9
same,"Plant response rating, Cocklebur","[6]; Rate 500 g/ha, Preemergence",10
same,"Plant response rating, Corn","corn (Zea mays); Rate 62 g/ha, Postemergence",4
same,Corn plant response rating,"corn (Zea mays); Rate 62 g/ha, Preemergence",3
same,Corn plant response rating,"corn (Zea mays); Rate 125 g/ha, Postemergence",5
same,"Plant response rating, Corn","corn (Zea mays); Rate 125 g/ha, Preemergence",3
same,"Plant response rating, Corn","corn (Zea mays); Rate 250 g/ha, Postemergence",6
same,"Plant response rating, Corn","corn (Zea mays); Rate 250 g/ha, Preemergence",7
same,"Plant response rating, Corn","corn (Zea mays); Rate 500 g/ha, Postemergence",7
same,"Plant response rating, Corn","corn (Zea mays); Rate 500 g/ha, Preemergence",8
same,"Plant response rating, Redroot pigweed","[7]; Rate 62 g/ha, Postemergence",9
same,Redroot pigweed plant response rating,"[7]; Rate 62 g/ha, Preemergence",10
same,Redroot pigweed plant response rating,"[7]; Rate 125 g/ha, Postemergence",10
same,"Plant response rating, Redroot pigweed","[7]; Rate 125 g/ha, Preemergence",10
same,"Plant response rating, Redroot pigweed","[7]; Rate 250 g/ha, Postemergence",10
same,"Plant response rating, Redroot pigweed","[7]; Rate 250 g/ha, Preemergence",10
same,"Plant response rating, Redroot pigweed","[7]; Rate 500 g/ha, Postemergence",10
same,"Plant response rating, Redroot pigweed","[7]; Rate 500 g/ha, Preemergence",10
same,"Plant response rating, Blackgrass","[8]; Rate 62 g/ha, Postemergence",5
same,Blackgrass plant response rating,"[8]; Rate 62 g/ha, Preemergence",5
same,Blackgrass plant response rating,"[8]; Rate 125 g/ha, Postemergence",9
same,"Plant response rating, Blackgrass","[8]; Rate 125 g/ha, Preemergence",8
same,"Plant response rating, Blackgrass","[8]; Rate 250 g/ha, Postemergence",9
same,"Plant response rating, Blackgrass","[8]; Rate 250 g/ha, Preemergence",10
same,"Plant response rating, Blackgrass","[8]; Rate 500 g/ha, Postemergence",9
same,"Plant response rating, Blackgrass","[8]; Rate 500 g/ha, Preemergence",10
same,"Plant response rating, Rice",rice (Oryza sativa); [12],3
same,Rice plant response rating,rice (Oryza sativa); [13],5
same,"Plant response rating, Rice",rice (Oryza sativa); [14],7
same,"Plant response rating, Rice",rice (Oryza sativa); [15],7
same,"Plant response rating, S. Flatsedge",[9]; [12],9
same,S. Flatsedge plant response rating,[9]; [13],9
same,"Plant response rating, S. Flatsedge",[9]; [14],9
same,"Plant response rating, S. Flatsedge",[9]; [15],9
same,"Plant response rating, Barnyardgrass",[10]; [12],5
same,Barnyardgrass plant response rating,[10]; [13],6
same,"Plant response rating, Barnyardgrass",[10]; [14],7
same,"Plant response rating, Barnyardgrass",[10]; [15],8
same,"Plant response rating, Ducksalad",[11]; [12],9
same,Ducksalad plant response rating,[11]; [13],9
same,"Plant response rating, Ducksalad",[11]; [14],9
same,"Plant response rating, Ducksalad",[11]; [15],9
